Data reported in ChEMBL document CHEMBL1157156, “A novel sesquiterpene lactone from Centaurea pullata: structure elucidation, antimicrobial activity, and prediction of pharmacokinetic properties” (2008).
In brackets after ≈: the same amount, converted by molar mass.

What was measured:
Trichoderma viride = test: Antimicrobial activity against Trichoderma viride IAM5061 by serial dilution technique; assay type: functional
Escherichia coli = test: Antimicrobial activity against Escherichia coli ATCC 35210 by serial dilution technique; assay type: functional
Bacillus subtilis = test: Antimicrobial activity against Bacillus subtilis ATCC 10907 by serial dilution technique; assay type: functional
Pseudomonas tolaasii = test: Antimicrobial activity against Pseudomonas tolaasii by serial dilution technique; assay type: functional
Aspergillus niger = test: Antimicrobial activity against Aspergillus niger ATCC 6275 by serial dilution technique; assay type: functional
Alternaria alternata = test: Antimicrobial activity against Alternaria alternata DMS2006 by serial dilution technique; assay type: functional
Micrococcus luteus = test: Antimicrobial activity against Micrococcus flavus ATCC 10240 by serial dilution technique; assay type: functional
Penicillium ochrochloron = test: Antimicrobial activity against Penicillium ochrochloron ATCC 9112 by serial dilution technique; assay type: functional
[1] = tested on: Staphylococcus epidermidis; test: Antimicrobial activity against Staphylococcus epidermidis ATCC 12228 by serial dilution technique; assay type: functional
Aspergillus ochraceus = test: Antimicrobial activity against Aspergillus ochraceus ATCC 12066 by serial dilution technique; assay type: functional
Salmonella enteritidis = test: Antimicrobial activity against Salmonella enteritidis ATCC 13076 by serial dilution technique; assay type: functional, Salmonella enterica subsp. enterica serovar Enteritidis; settings: Salmonella enterica
Fusarium tricinctum = test: Antimicrobial activity against Fusarium tricinctum by serial dilution technique; assay type: functional
Aspergillus flavus = test: Antimicrobial activity against Aspergillus flavus ATCC 9643 by serial dilution technique; assay type: functional
Talaromyces funiculosus = test: Antimicrobial activity against Penicillium funiculosum ATCC 36839 by serial dilution technique; assay type: functional

MIC (Trichoderma viride) | MIC (Escherichia coli) | MIC (Bacillus subtilis) | MIC (Pseudomonas tolaasii) | MIC (Aspergillus niger) | MIC (Alternaria alternata) | MIC (Micrococcus luteus) | MIC (Penicillium ochrochloron) | MIC [1] | MIC (Aspergillus ochraceus) | SMILES | MFC (Trichoderma viride) | MBC (Bacillus subtilis) | MBC (Pseudomonas tolaasii) | MFC (Aspergillus niger) | MFC (Alternaria alternata) | MBC (Micrococcus luteus) | MFC (Penicillium ochrochloron) | MBC [1] | MFC (Aspergillus ochraceus) | MBC (Salmonella enteritidis) | further results
0.7 µM (≈ 0.198 µg/mL) | 1 µM (≈ 0.282 µg/mL) | 0.7 µM (≈ 0.198 µg/mL) | 0.7 µM (≈ 0.198 µg/mL) | 0.3 µM (≈ 0.0847 µg/mL) | 0.3 µM (≈ 0.0847 µg/mL) | 0.7 µM (≈ 0.198 µg/mL) | 0.3 µM (≈ 0.0847 µg/mL) | 1 µM (≈ 0.282 µg/mL) | 0.3 µM (≈ 0.0847 µg/mL) | C[C@@H]1C(=O)O[C@H]2[C@H]1[C@@H](O)C[C@]1(C)[C@@H]2[C@@H](C=O)CC[C@H]1O | 0.7 µM (≈ 0.198 µg/mL) | 0.7 µM (≈ 0.198 µg/mL) | 0.7 µM (≈ 0.198 µg/mL) | 0.3 µM (≈ 0.0847 µg/mL) | 0.3 µM (≈ 0.0847 µg/mL) | 0.7 µM (≈ 0.198 µg/mL) | 0.7 µM (≈ 0.198 µg/mL) | 1.4 µM (≈ 0.395 µg/mL) | 0.3 µM (≈ 0.0847 µg/mL) | 1 µM (≈ 0.282 µg/mL) | MIC (Salmonella enteritidis): 0.7 µM (≈ 0.198 µg/mL); MFC (Fusarium tricinctum): 0.3 µM (≈ 0.0847 µg/mL); MIC (Fusarium tricinctum): 0.3 µM (≈ 0.0847 µg/mL); MFC (Aspergillus flavus): 0.3 µM (≈ 0.0847 µg/mL); MIC (Aspergillus flavus): 0.3 µM (≈ 0.0847 µg/mL); MFC (Talaromyces funiculosus): 0.7 µM (≈ 0.198 µg/mL); MIC (Talaromyces funiculosus): 0.7 µM (≈ 0.198 µg/mL)
0.3 µM (≈ 0.0799 µg/mL) | 2.3 µM (≈ 0.613 µg/mL) | 1.5 µM (≈ 0.4 µg/mL) | 2.3 µM (≈ 0.613 µg/mL) | 0.7 µM (≈ 0.186 µg/mL) | 0.7 µM (≈ 0.186 µg/mL) | 2.3 µM (≈ 0.613 µg/mL) | 0.7 µM (≈ 0.186 µg/mL) | 2.3 µM (≈ 0.613 µg/mL) | 0.7 µM (≈ 0.186 µg/mL) | C=C[C@]1(C)C[C@H](O)[C@@H]2[C@H](OC(=O)[C@H]2C)[C@H]1C(=C)CO | 0.7 µM (≈ 0.186 µg/mL) | 2.3 µM (≈ 0.613 µg/mL) | 2.3 µM (≈ 0.613 µg/mL) | 0.7 µM (≈ 0.186 µg/mL) | 0.7 µM (≈ 0.186 µg/mL) | 2.3 µM (≈ 0.613 µg/mL) | 0.7 µM (≈ 0.186 µg/mL) | 2.3 µM (≈ 0.613 µg/mL) | 0.7 µM (≈ 0.186 µg/mL) | 2.3 µM (≈ 0.613 µg/mL) | MIC (Salmonella enteritidis): 2.3 µM (≈ 0.613 µg/mL); MFC (Fusarium tricinctum): 0.7 µM (≈ 0.186 µg/mL); MIC (Fusarium tricinctum): 0.7 µM (≈ 0.186 µg/mL); MFC (Aspergillus flavus): 0.7 µM (≈ 0.186 µg/mL); MIC (Aspergillus flavus): 0.7 µM (≈ 0.186 µg/mL); MFC (Talaromyces funiculosus): 0.7 µM (≈ 0.186 µg/mL); MIC (Talaromyces funiculosus): 0.7 µM (≈ 0.186 µg/mL)
0.2 µM (≈ 0.0729 µg/mL) | 0.4 µM (≈ 0.146 µg/mL) | 0.2 µM (≈ 0.0729 µg/mL) | 0.5 µM (≈ 0.182 µg/mL) | 0.3 µM (≈ 0.109 µg/mL) | 0.1 µM (≈ 0.0364 µg/mL) | 0.4 µM (≈ 0.146 µg/mL) | 0.2 µM (≈ 0.0729 µg/mL) | 0.5 µM (≈ 0.182 µg/mL) | 0.2 µM (≈ 0.0729 µg/mL) | C=C[C@]1(C)C[C@H](OC(=O)C(=C)CCO)[C@@H]2[C@H](OC(=O)[C@H]2C)[C@H]1C(=C)CO | 0.2 µM (≈ 0.0729 µg/mL) | 0.4 µM (≈ 0.146 µg/mL) | 0.8 µM (≈ 0.292 µg/mL) | 0.3 µM (≈ 0.109 µg/mL) | 0.1 µM (≈ 0.0364 µg/mL) | 0.5 µM (≈ 0.182 µg/mL) | 0.2 µM (≈ 0.0729 µg/mL) | 0.8 µM (≈ 0.292 µg/mL) | 0.2 µM (≈ 0.0729 µg/mL) | 0.4 µM (≈ 0.146 µg/mL) | MIC (Salmonella enteritidis): 0.2 µM (≈ 0.0729 µg/mL); MFC (Fusarium tricinctum): 0.2 µM (≈ 0.0729 µg/mL); MIC (Fusarium tricinctum): 0.1 µM (≈ 0.0364 µg/mL); MFC (Aspergillus flavus): 0.2 µM (≈ 0.0729 µg/mL); MIC (Aspergillus flavus): 0.1 µM (≈ 0.0364 µg/mL); MFC (Talaromyces funiculosus): 0.3 µM (≈ 0.109 µg/mL); MIC (Talaromyces funiculosus): 0.2 µM (≈ 0.0729 µg/mL)

The next lines start with the molecule.

SMILES | MIC (Trichoderma viride) | MIC (Escherichia coli) | MIC (Bacillus subtilis) | MIC (Pseudomonas tolaasii) | MIC (Aspergillus niger) | MIC (Alternaria alternata) | MIC (Micrococcus luteus) | MIC (Penicillium ochrochloron) | MIC [1] | MIC (Aspergillus ochraceus) | MFC (Trichoderma viride) | MBC (Bacillus subtilis) | MBC (Pseudomonas tolaasii) | MFC (Aspergillus niger) | MFC (Alternaria alternata) | MBC (Micrococcus luteus) | MFC (Penicillium ochrochloron) | MBC [1] | MFC (Aspergillus ochraceus) | MBC (Salmonella enteritidis) | further results
C/C1=C\CC/C(CO)=C/[C@H]2OC(=O)[C@@H](C)[C@@H]2[C@@H](O)C1 | 0.3 µM (≈ 0.0799 µg/mL) | 1.5 µM (≈ 0.4 µg/mL) | 0.8 µM (≈ 0.213 µg/mL) | 0.8 µM (≈ 0.213 µg/mL) | 0.7 µM (≈ 0.186 µg/mL) | 0.7 µM (≈ 0.186 µg/mL) | 1.1 µM (≈ 0.293 µg/mL) | 0.7 µM (≈ 0.186 µg/mL) | 1.5 µM (≈ 0.4 µg/mL) | 0.7 µM (≈ 0.186 µg/mL) | 0.7 µM (≈ 0.186 µg/mL) | 1.1 µM (≈ 0.293 µg/mL) | 0.8 µM (≈ 0.213 µg/mL) | 0.7 µM (≈ 0.186 µg/mL) | 0.7 µM (≈ 0.186 µg/mL) | 1.1 µM (≈ 0.293 µg/mL) | 0.7 µM (≈ 0.186 µg/mL) | 1.9 µM (≈ 0.506 µg/mL) | 0.7 µM (≈ 0.186 µg/mL) | 1.5 µM (≈ 0.4 µg/mL) | MIC (Salmonella enteritidis): 1.1 µM (≈ 0.293 µg/mL); MFC (Fusarium tricinctum): 0.7 µM (≈ 0.186 µg/mL); MIC (Fusarium tricinctum): 0.7 µM (≈ 0.186 µg/mL); MFC (Aspergillus flavus): 0.7 µM (≈ 0.186 µg/mL); MIC (Aspergillus flavus): 0.3 µM (≈ 0.0799 µg/mL); MFC (Talaromyces funiculosus): 0.7 µM (≈ 0.186 µg/mL); MIC (Talaromyces funiculosus): 0.7 µM (≈ 0.186 µg/mL)
C[C@@H]1C(=O)O[C@@H]2C3[C@H](C=O)CCC[C@]3(C)C[C@H](O)[C@@H]12 (some centres not stated) | 0.4 µM (≈ 0.107 µg/mL) | 0.5 µM (≈ 0.133 µg/mL) | 0.3 µM (≈ 0.0799 µg/mL) | 0.7 µM (≈ 0.186 µg/mL) | 0.6 µM (≈ 0.16 µg/mL) | 0.2 µM (≈ 0.0533 µg/mL) | 0.5 µM (≈ 0.133 µg/mL) | 0.4 µM (≈ 0.107 µg/mL) | 0.7 µM (≈ 0.186 µg/mL) | 0.4 µM (≈ 0.107 µg/mL) | 0.4 µM (≈ 0.107 µg/mL) | 0.5 µM (≈ 0.133 µg/mL) | 1.1 µM (≈ 0.293 µg/mL) | 0.6 µM (≈ 0.16 µg/mL) | 0.2 µM (≈ 0.0533 µg/mL) | 0.7 µM (≈ 0.186 µg/mL) | 0.4 µM (≈ 0.107 µg/mL) | 1.1 µM (≈ 0.293 µg/mL) | 0.4 µM (≈ 0.107 µg/mL) | 0.5 µM (≈ 0.133 µg/mL) | MIC (Salmonella enteritidis): 0.3 µM (≈ 0.0799 µg/mL); MFC (Fusarium tricinctum): 0.4 µM (≈ 0.107 µg/mL); MIC (Fusarium tricinctum): 0.2 µM (≈ 0.0533 µg/mL); MFC (Aspergillus flavus): 0.4 µM (≈ 0.107 µg/mL); MIC (Aspergillus flavus): 0.2 µM (≈ 0.0533 µg/mL); MFC (Talaromyces funiculosus): 0.6 µM (≈ 0.16 µg/mL); MIC (Talaromyces funiculosus): 0.4 µM (≈ 0.107 µg/mL)
Clc1ccc(COC(Cn2ccnc2)c2ccc(Cl)cc2Cl)c(Cl)c1 (configuration not stated) [MICONAZOLE] | 4 µM (≈ 1.66 µg/mL) |  |  |  | 3 µM (≈ 1.25 µg/mL) | 0.4 µM (≈ 0.166 µg/mL) |  | 4 µM (≈ 1.66 µg/mL) |  | 3 µM (≈ 1.25 µg/mL) | 4 µM (≈ 1.66 µg/mL) |  |  | 8 µM (≈ 3.33 µg/mL) | 2 µM (≈ 0.832 µg/mL) |  | 10 µM (≈ 4.16 µg/mL) |  | 8 µM (≈ 3.33 µg/mL) |  | MFC (Fusarium tricinctum): 2 µM (≈ 0.832 µg/mL); MIC (Fusarium tricinctum): 0.4 µM (≈ 0.166 µg/mL); MFC (Aspergillus flavus): 4 µM (≈ 1.66 µg/mL); MIC (Aspergillus flavus): 1 µM (≈ 0.416 µg/mL); MFC (Talaromyces funiculosus): 10 µM (≈ 4.16 µg/mL); MIC (Talaromyces funiculosus): 4 µM (≈ 1.66 µg/mL)
CN[C@@H]1[C@H](O[C@H]2[C@H](O[C@H]3[C@H](O)[C@@H](O)[C@H](N=C(N)N)[C@@H](O)[C@@H]3N=C(N)N)O[C@@H](C)[C@]2(O)C=O)O[C@@H](CO)[C@H](O)[C@H]1O [STREPTOMYCIN] |  | 0.8 µM (≈ 0.465 µg/mL) | 0.8 µM (≈ 0.465 µg/mL) | 1.6 µM (≈ 0.931 µg/mL) |  |  | 0.8 µM (≈ 0.465 µg/mL) |  | 1.6 µM (≈ 0.931 µg/mL) |  |  | 0.8 µM (≈ 0.465 µg/mL) | 1.6 µM (≈ 0.931 µg/mL) |  |  | 1.6 µM (≈ 0.931 µg/mL) |  | 1.6 µM (≈ 0.931 µg/mL) |  | 1.6 µM (≈ 0.931 µg/mL) | MIC (Salmonella enteritidis): 1.6 µM (≈ 0.931 µg/mL)
